Source: ChEMBL document CHEMBL5303711, “ECBD screening data for assay EOS300108” (2023)
Counter-ions that a name gives are not always drawn. Active and inactive are the calls of the source. The rule behind the calls is not given here. Residues, ends and D or L forms follow the SMILES beside them. *: point of attachment. Cbz = O=C(OCc1ccccc1)*

Assay: Cytotoxicity activity against human HepG2 cells assessed by CellTiter-Glo luminescent cell viability assay.
Type: toxicity, cell-based
Parameters: assay stage confirmatory assay, source tissue liver
Settings: HepG2 cells, read-out: IC50 relative

Row | Structure (SMILES) | CC50
1 | CCc1nccn1[C@H]1CCCN(CCOc2ccccc2F)C1 | 9.3 µM (active)
2 | Cc1cc(N)c2ccccc2[n+]1CCCCCCCCCC[n+]1c(C)cc(N)c2ccccc21 [DEQUALINIUM CHLORIDE] | 14.4 µM (inactive)
3 | c1ccc2c(-c3cnn4cc(-c5ccc(N6CCNCC6)cc5)cnc34)ccnc2c1 | 0.5 µM (active)
4 | O=C(Nc1cc(Cl)cc2cccnc12)c1ccoc1 | 0.3 µM (active)
5 | COc1ccc2oc(C(=O)Nc3ncccc3O)c(C)c2c1 | 47.2 µM (inactive)
6 | COc1ccc(Nc2nccc(-c3cccnc3)n2)cc1 | 9.9 µM (active)
7 | COc1ccc(F)c(F)c1C(=O)c1cnc(NC2CCN(S(C)(=O)=O)CC2)nc1N [RG-547] | 0.5 µM (active)
8 | c1ccc(Oc2cccc(C[C@H]3CCCN3)c2)cc1 | 13.7 µM (inactive)
9 | CCOC(=O)c1cnn(-c2ccc(NC(=O)C(Cl)=C(Cl)Cl)cc2)c1C(F)(F)F | 1 µM (active)
10 | CC(=O)N1CCCSc2ccc(S(=O)(=O)N3CCN(c4ccc(F)cc4)CC3)cc21 | 7.5 µM (active)
11 | NC(=O)c1c(NC(=O)Cn2ncc(Cl)c(Cl)c2=O)sc2c1CCC2 | 1.9 µM (active)
12 | O=C(/C=C/c1ccc(O)c(O)c1)OCCc1ccccc1 [CAFFEIC ACID PHENETHYL ESTER] | 4.7 µM (active)
13 | CCOc1cc2ncc(C#N)c(Nc3ccc(OCc4ccccn4)c(Cl)c3)c2cc1NC(=O)/C=C/CN(C)C [NERATINIB] | 9.9 µM (inactive)
14 | O=C(Nc1n[nH]c(C2CC2)n1)C1CC(=O)N(c2ccc(Br)cc2)C1 (stereo not drawn) | 1.8 µM (active)
15 | CCN1/C(=C/c2ccc3ccccc3[n+]2CC)C=Cc2ccccc21 | 1 µM (active)
16 | CN(C)CCCOc1ccc(-c2ccc3ncc4c(c3c2)n(C2CCOCC2)c(=O)n4C)cn1 | 7.4 µM (active)
17 | CC1=C(/C=C/C(C)=C/C=C/C(C)=C/C(=O)Nc2ccc(O)cc2)C(C)(C)CCC1 [FENRETINIDE] | 10.8 µM (active)
18 | CCN1CCN(C(=O)C2CCN(c3nn4cc(-c5ccc(C)cc5)nc4s3)CC2)CC1 | 9.5 µM (active)
19 | CCN(CC)C(=O)c1sc2[nH]c(-c3ccccn3)nc(=O)c2c1C | 6 µM (active)
20 | CCN(CC)C(=O)CN1CCN(S(=O)(=O)c2ccc3c(c2)CCC3)CC1 | 50 µM (inactive)
21 | Cc1oc(-c2ccccc2)nc1C(=O)Nc1ncccc1O | 9.6 µM (inactive)
22 | COc1ccc(OC)c(C2CC(c3c(O)[nH]c(=O)n(C4CCCCC4)c3=O)=NN2)c1 (stereo not drawn) | 5.7 µM (active)
23 | Clc1ccc2oc(C3CCNCC3)cc2c1 | 10.1 µM (active)
24 | Cc1csc(CCNc2cc(N3CCC[C@@H]3CO)ncn2)n1 | 2.4 µM (active)

Row | Structure (SMILES) | CC50
25 | COc1cccc(OCCCN)c1-c1cc(Nc2cnc(C#N)cn2)n[nH]1 | 0.3 µM (active)
26 | Cc1cc(N2CCN([C@@H](C)c3nc(C(C)(C)C)no3)CC2)nc(C(C)C)n1 | 11.9 µM (active)
27 | CCCC(=O)Nc1ccc(Nc2nc(C)cc(N3CCCC3)n2)cc1 | 5.7 µM (active)
28 | CCOc1cc(F)ccc1NC(=O)c1csc(-c2cnn(C)c2)n1 | 0.4 µM (active)
29 | Nc1ncc(-c2cnn(CCO)c2)c2scc(-c3ccc(NC(=O)Nc4cccc(F)c4)cc3)c12 [ILORASERTIB] | 2.8 µM (active)
30 | CN1C/C=C\CCOc2cccc(c2)-c2ccnc(n2)Nc2cccc(c2)C1 | < 0.1 µM (active)
31 | COc1ccc(OC2CCN(CC[C@H]3CCCCN3C)CC2)cc1 | 11.2 µM (inactive)
32 | O=S(=O)(c1cccc2c(I)cccc12)N1CCCNCC1 | 9.7 µM (active)
33 | COc1ccc(NS(=O)(=O)c2ccc3onc(C(=O)N4CCCC4)c3c2)cc1 | 7.1 µM (active)
34 | Nc1ccnc2ccc(Oc3ccccc3)cc12 | 11.2 µM (active)
35 | COc1ccccc1OCC(=O)Nc1cccc2ncccc12 | 9.3 µM (active)
36 | N#Cc1ccc2[nH]cc(CCCCN3CCN(c4ccc5oc(C(N)=O)cc5c4)CC3)c2c1 [VILAZODONE] | 6.1 µM (active)
37 | Cc1c(C(=O)Nc2ncccc2O)oc2ccccc12 | 1.7 µM (active)
38 | CN(C)CCCNC(=O)c1ccc(-c2cc(O)c3ncccc3c2)cc1 | 8 µM (active)
39 | COc1ccc(-c2cnc3ccc(N4CCCC4)nn23)cc1OC | 4.3 µM (active)
40 | CCC[C@H](NCc1csc(N(C)C)n1)c1ncccc1Cl | 11.1 µM (active)
41 | CSc1ccc(NC(=O)Nc2ccc3c(c2)N(S(C)(=O)=O)CC3)cc1 | 8.1 µM (inactive)
42 | COc1cccc(C(=O)/N=c2\sc(C)c(C)n2Cc2ccc(C(=O)NCCN(C)C)o2)c1 | 12.2 µM (active)
43 | COc1cc(-c2cc(C)no2)ccc1S(=O)(=O)Nc1cc(OC)c(OC)c(OC)c1 | 4.5 µM (active)
44 | COC1(C(=O)N2CCO[C@H](c3ccccc3C)C2)CS(=O)(=O)C1 | 8.6 µM (active)
45 | CC(C)(CN)c1cccc(-c2cccc(CN)c2)c1 | 12.3 µM (active)
46 | COc1ccc2c(c1)c(C1=C(c3c[nH]c4ccccc34)C(=O)NC1=O)cn2CCCN(C)C | 4.7 µM (active)
47 | COc1cc(-c2ccccc2)sc1C(=O)NC1CC1 | 13.4 µM (active)
48 | CN1CCN(Cc2ccc(Nc3ncc(Cl)c(Nc4ccccc4S(=O)(=O)N(C)C)n3)cc2)CC1 [DUBERMATINIB] | 11.2 µM (active)

Row | Structure (SMILES) | CC50
49 | CN(C)c1ccnc(NCCc2cc(F)cc3c2OCOC3)n1 | 10.2 µM (active)
50 | CCN(CC)CCCNC(=O)C1CCCN(c2ncc(-c3ccc(F)cc3)cn2)C1 (stereo not drawn) | 10.9 µM (active)
51 | O=C(Nc1cccc(Cl)c1)Nc1ncc(CCNc2ncnc3ccsc23)s1 [SNS-314 MESYLATE] | 10.1 µM (active)
52 | COc1ccc(-c2ccc3c(N4CCOC[C@@H]4C)nc(N4CCOC[C@@H]4C)nc3n2)cc1CO [AZD-8055] | 0.1 µM (active)
53 | O=C(N/N=C/c1ccccc1O)c1ccncc1 [SALINAZID] | 9.5 µM (active)
54 | CN1CCN(Cc2ccc(NC(=O)c3n[nH]cc3Nc3ncnc4[nH]ccc34)cc2)CC1 | 1.1 µM (active)
55 | O=C(Nc1ccncc1)c1cccn(Cc2cccc(F)c2)c1=O | 6.1 µM (active)
56 | c1ccc2c(OCCN3CCC(N4CCCCC4)CC3)cccc2c1 | 6.4 µM (active)
57 | Cc1cc(N2CCOCC2)cc2[nH]c(-c3c(NC[C@@H](O)c4cccc(Cl)c4)cc[nH]c3=O)nc12 | 2.3 µM (active)
58 | CCC(CC)C(c1ccc(Nc2nc3ccccc3s2)cc1)n1cncn1 (stereo not drawn) [TALAROZOLE] | 14.4 µM (inactive)
59 | CC(C)N1CCN(Cc2cnc(-c3cc(-c4cccc5[nH]ccc45)cc4[nH]ncc34)o2)CC1 [NEMIRALISIB] | 4.4 µM (active)
60 | CC(C)(C)n1c(NC(=O)c2ccncc2)nc2ccccc21 | 15.2 µM (active)
61 | CC(=O)NC(c1ccccc1)c1cc(Cl)c2cccnc2c1O (stereo not drawn) | 1.4 µM (active)
62 | N#Cc1ccc(NC(=O)Nc2cnn(-c3ccccc3)c2)cc1 | 8.9 µM (active)
63 | OCCn1cc(-c2ccc3c(c2)CC/C3=N\O)c(-c2ccncc2)n1 | 1.1 µM (active)
64 | CC(C)c1cc2c(N3CCN(C4=NCC(C)(C)S4)CC3)ncnc2s1 | 10 µM (active)
65 | O=C1COc2cc(C(=O)Nc3nc(-c4ccccn4)cs3)ccc2N1 | 1.5 µM (active)
66 | CC(NC(=O)N(C)CC1CCOCC1)c1ccccc1C(F)(F)F (stereo not drawn) | 50 µM (inactive)
67 | CN(C)C[C@@H]1CCn2cc(c3ccccc32)C2=C(C(=O)NC2=O)c2cn(c3ccccc23)CCO1 | 3 µM (active)
68 | O=c1cnnc(NCc2ccccc2)n1Cc1ccccc1 | 4.5 µM (active)
69 | CCS(=O)(=O)N1CCc2ccc(NC(=O)Nc3ccc(Cl)cc3)cc21 | 14.3 µM (inactive)
70 | Cc1cnc(NC(=O)Nc2cc(Br)c(C)cc2OC[C@@H]2CNCCO2)cn1 [RABUSERTIB] | 5.9 µM (active)
71 | O=C(/C=C/c1ccc2ccccc2n1)c1ccncc1 | 1.1 µM (active)
72 | CCN1CCN(C(=O)Cc2ccc(Nc3ncc(F)c(Nc4ccc(C(=O)Nc5ccccc5Cl)cc4)n3)cc2)CC1 | 1.8 µM (active)

Row | Structure (SMILES) | CC50
73 | Cc1cc(C)cc(N2CCC(NCC3CCCNC3)CC2)c1 (stereo not drawn) | 8.2 µM (active)
74 | O=c1[nH]c(Cc2ccc(-n3cccn3)cc2)nc2ccccc12 | 2.1 µM (active)
75 | Cn1nccc1CCNC(=O)c1csc(-c2ccoc2)n1 | 2 µM (active)
76 | CC(C)C[C@@H](C=O)NC(=O)[C@H](CC(C)C)NC(=O)[C@H](CC(C)C)NC(=O)OCc1ccccc1 [MG-132] (Cbz-Leu-Leu-Leu-aldehyde) | 0.5 µM (active)
77 | Cc1cccc2nc(C(=O)Nc3cccnc3-n3cccn3)cn12 | 7 µM (active)
78 | CC(C)c1noc(-c2ccc(OCC(=O)NC(C)(C)C)cc2)n1 | 8.2 µM (active)
79 | CC(C)Oc1cc(O)c2c(=O)c(-c3ccc(O)cc3)coc2c1 | 15.6 µM (active)
80 | COc1ccc2c(O[C@@H]3C[C@H]4C(=O)N[C@]5(C(=O)NS(=O)(=O)C6CC6)C[C@H]5/C=C\CCCCN(C)C(=O)[C@@H]4C3)cc(-c3nc(C(C)C)cs3)nc2c1C | 8.6 µM (active)
81 | Cc1cc([C@H]2CCCN(CC(=O)Nc3nccs3)C2)n[nH]1 | 6.6 µM (inactive)
82 | O=C(O)c1ccc2cc(-c3ccc(O)c(C45CC6CC(CC(C6)C4)C5)c3)ccc2c1 [O-DEMETHYLATED ADAPALENE] | 8.3 µM (active)
83 | C[C@@H]1COCCN1c1cc(=O)n2c(n1)N(Cc1cncc(Cl)c1)[C@H](C(F)(F)F)CC2 | 14.5 µM (inactive)
84 | O=C1C=C(N(CCO)Cc2ccccc2)c2ccccc2C1=O | 4.4 µM (active)
85 | CS(=O)(=O)N1CCc2ccc(NC(=O)Nc3ccc(F)cc3F)cc21 | 24.5 µM (inactive)
86 | CN(C)CCNC(=O)Cn1c(Cc2ccccc2)nn(-c2ccc(Cl)cc2)c1=O | 11.7 µM (active)
87 | COc1ccc(/C=C\c2cc(OC)c(OC)c(OC)c2)cc1O [COMBRETASTATIN A4] | 1.4 µM (inactive)
88 | CCCCOc1ccc(C(=O)N2CCN(S(=O)(=O)c3ccc4c(c3)OCCCO4)CC2)cc1 | 3.2 µM (inactive)
89 | N#Cc1cc(NC[C@H](O)c2ccco2)nc2ccc(Cl)cc12 | 1.3 µM (active)
90 | CC(C)c1ccc(CN(CCCN(C)C)CCCN(C)C)cc1 | 8.8 µM (active)
91 | NCC1CCC(CNc2nc(NCc3ccccc3OC(F)(F)F)ncc2[N+](=O)[O-])CC1 (stereo not drawn) | 9.7 µM (active)
92 | CCCCc1c(C)[nH]n(-c2nc3ccccc3[nH]2)c1=O | 8.9 µM (active)
93 | COc1cc(OC)c2cc(CCCN)[nH]c2c1 | 8.2 µM (active)
